Experimental data published in PubChem BioAssay (NCI).
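Here, GI50 denotes the concentration required for 50% inhibition of growth. TGI denotes the concentration required for complete inhibition of growth.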

What was measured:
Assay in all cases: DTP human tumour cell line panel, 384-well format
786-0 renal = test system: 786-0 renal
A498 renal = test system: A498 renal
A549 NSCLC = test system: A549 NSCLC
BT-549 breast = test system: BT-549 breast
CAKI-1 renal = test system: CAKI-1 renal
CCRF-CEM leukemia = test system: CCRF-CEM leukemia
COLO 205 colon = test system: COLO 205 colon
DU-145 prostate = test system: DU-145 prostate
EKVX NSCLC = test system: EKVX NSCLC
HCC-2998 colon = test system: HCC-2998 colon
HCT-116 colon = test system: HCT-116 colon
HCT-15 colon = test system: HCT-15 colon
HL-60(TB) leukemia = test system: HL-60(TB) leukemia
HOP-62 NSCLC = test system: HOP-62 NSCLC
HOP-92 NSCLC = test system: HOP-92 NSCLC
HS 578T breast = test system: HS 578T breast
HT29 colon = test system: HT29 colon
IGROV1 ovarian = test system: IGROV1 ovarian
KM12 colon = test system: KM12 colon
LOX IMVI melanoma = test system: LOX IMVI melanoma
M14 melanoma = test system: M14 melanoma
MALME-3M melanoma = test system: MALME-3M melanoma
MCF7 breast = test system: MCF7 breast
MDA-MB-231 breast = test system: MDA-MB-231 breast
MDA-MB-435 melanoma = test system: MDA-MB-435 melanoma
MOLT-4 leukemia = test system: MOLT-4 leukemia
NCI-H226 lung = test system: NCI-H226 lung
NCI-H23 lung = test system: NCI-H23 lung
NCI-H322M lung = test system: NCI-H322M lung
NCI-H460 NSCLC = test system: NCI-H460 NSCLC
NCI/ADR-RES ovarian = test system: NCI/ADR-RES ovarian
OVCAR-3 ovarian = test system: OVCAR-3 ovarian
OVCAR-4 ovarian = test system: OVCAR-4 ovarian
OVCAR-8 ovarian = test system: OVCAR-8 ovarian
RPMI-8226 leukemia = test system: RPMI-8226 leukemia
RXF 393 renal = test system: RXF 393 renal
SF-268 CNS = test system: SF-268 CNS
SF-539 CNS = test system: SF-539 CNS
SK-MEL-2 melanoma = test system: SK-MEL-2 melanoma
SK-MEL-28 melanoma = test system: SK-MEL-28 melanoma
SK-MEL-5 melanoma = test system: SK-MEL-5 melanoma
SK-OV-3 ovarian = test system: SK-OV-3 ovarian
SN12C renal = test system: SN12C renal
SNB-19 CNS = test system: SNB-19 CNS
SNB-75 CNS = test system: SNB-75 CNS
SR leukemia = test system: SR leukemia
SW-620 colon = test system: SW-620 colon
TK-10 renal = test system: TK-10 renal
U251 glioblastoma = test system: U251 glioblastoma
UACC-257 melanoma = test system: UACC-257 melanoma
UACC-62 melanoma = test system: UACC-62 melanoma
UO-31 renal = test system: UO-31 renal

SMILES: C[C@@]1(O)CCC[C@H]1n1c(=O)c(C(F)F)cc2cnc(NC3CCN(S(C)(=O)=O)CC3)nc21
- GI50 (786-0 renal): 1850 nM
- TGI (786-0 renal): > 100000 nM
- GI50 (A498 renal): 1750 nM
- TGI (A498 renal): > 100000 nM
- GI50 (A549 NSCLC): 1980 nM
- TGI (A549 NSCLC): > 100000 nM
- GI50 (BT-549 breast): 866 nM
- TGI (BT-549 breast): 3040 nM
- GI50 (CAKI-1 renal): 784 nM
- TGI (CAKI-1 renal): > 100000 nM
- GI50 (CCRF-CEM leukemia): 357 nM
- TGI (CCRF-CEM leukemia): 1770 nM
- GI50 (COLO 205 colon): 1330 nM
- TGI (COLO 205 colon): 4740 nM
- GI50 (DU-145 prostate): 1630 nM
- TGI (DU-145 prostate): 6380 nM
- GI50 (EKVX NSCLC): 1900 nM
- TGI (EKVX NSCLC): 5150 nM
- GI50 (HCC-2998 colon): 1380 nM
- TGI (HCC-2998 colon): 3900 nM
- GI50 (HCT-116 colon): 198 nM
- TGI (HCT-116 colon): > 100000 nM
- GI50 (HCT-15 colon): 1790 nM
- TGI (HCT-15 colon): 15800 nM
- GI50 (HL-60(TB) leukemia): 72.1 nM
- TGI (HL-60(TB) leukemia): 1200 nM
- GI50 (HOP-62 NSCLC): 1800 nM
- TGI (HOP-62 NSCLC): 6590 nM
- GI50 (HOP-92 NSCLC): 2050 nM
- TGI (HOP-92 NSCLC): > 100000 nM
- GI50 (HS 578T breast): 1920 nM
- TGI (HS 578T breast): 4040 nM
- GI50 (HT29 colon): 1830 nM
- TGI (HT29 colon): > 100000 nM
- GI50 (IGROV1 ovarian): 1620 nM
- TGI (IGROV1 ovarian): > 100000 nM
- GI50 (KM12 colon): 1070 nM
- TGI (KM12 colon): 3920 nM
- GI50 (LOX IMVI melanoma): 1600 nM
- TGI (LOX IMVI melanoma): > 100000 nM
- GI50 (M14 melanoma): 1470 nM
- TGI (M14 melanoma): 5490 nM
- GI50 (MALME-3M melanoma): 1440 nM
- TGI (MALME-3M melanoma): 3160 nM
- GI50 (MCF7 breast): 128 nM
- TGI (MCF7 breast): 19100 nM
- GI50 (MDA-MB-231 breast): 2340 nM
- TGI (MDA-MB-231 breast): > 100000 nM
- GI50 (MDA-MB-435 melanoma): 1630 nM
- TGI (MDA-MB-435 melanoma): 9280 nM
- GI50 (MOLT-4 leukemia): 445 nM
- TGI (MOLT-4 leukemia): 1930 nM
- GI50 (NCI-H226 lung): 1100 nM
- TGI (NCI-H226 lung): > 100000 nM
- GI50 (NCI-H23 lung): 1680 nM
- TGI (NCI-H23 lung): 3300 nM
- GI50 (NCI-H322M lung): 2070 nM
- TGI (NCI-H322M lung): 5800 nM
- GI50 (NCI-H460 NSCLC): 58.9 nM
- TGI (NCI-H460 NSCLC): 2180 nM
- GI50 (NCI/ADR-RES ovarian): 21000 nM
- TGI (NCI/ADR-RES ovarian): > 100000 nM
- GI50 (OVCAR-3 ovarian): 1520 nM
- TGI (OVCAR-3 ovarian): 5570 nM
- GI50 (OVCAR-4 ovarian): 3040 nM
- TGI (OVCAR-4 ovarian): 7150 nM
- GI50 (OVCAR-8 ovarian): 1540 nM
- TGI (OVCAR-8 ovarian): > 100000 nM
- GI50 (RPMI-8226 leukemia): 29 nM
- TGI (RPMI-8226 leukemia): 95.1 nM
- GI50 (RXF 393 renal): 1440 nM
- TGI (RXF 393 renal): 2880 nM
- GI50 (SF-268 CNS): 1690 nM
- TGI (SF-268 CNS): 4040 nM
- GI50 (SF-539 CNS): 1300 nM
- TGI (SF-539 CNS): 2890 nM
- GI50 (SK-MEL-2 melanoma): 2250 nM
- TGI (SK-MEL-2 melanoma): 4210 nM
- GI50 (SK-MEL-28 melanoma): 1210 nM
- TGI (SK-MEL-28 melanoma): 2910 nM
- GI50 (SK-MEL-5 melanoma): 99.3 nM
- TGI (SK-MEL-5 melanoma): 2280 nM
- GI50 (SK-OV-3 ovarian): 3010 nM
- TGI (SK-OV-3 ovarian): > 100000 nM
- GI50 (SN12C renal): 1990 nM
- TGI (SN12C renal): 4920 nM
- GI50 (SNB-19 CNS): 2400 nM
- TGI (SNB-19 CNS): > 100000 nM
- GI50 (SNB-75 CNS): 1420 nM
- TGI (SNB-75 CNS): 3020 nM
- GI50 (SR leukemia): 34.4 nM
- TGI (SR leukemia): 1080 nM
- GI50 (SW-620 colon): 94.4 nM
- TGI (SW-620 colon): > 100000 nM
- GI50 (TK-10 renal): 1150 nM
- TGI (TK-10 renal): > 100000 nM
- GI50 (U251 glioblastoma): 2030 nM
- TGI (U251 glioblastoma): 8800 nM
- GI50 (UACC-257 melanoma): 1630 nM
- TGI (UACC-257 melanoma): 3970 nM
- GI50 (UACC-62 melanoma): 951 nM
- TGI (UACC-62 melanoma): 2940 nM
- GI50 (UO-31 renal): 1010 nM
- TGI (UO-31 renal): 4130 nM
